Experimental data published in patent US7115604B2, “Method for treating erectile dysfunction” (Orion Corporation, priority 2000, dated 2006).

Tested on: NYHA III heart failure patients, who had not had erections for several years
Assay: Clinical data: levosimendan infusion in heart failure patients with erectile dysfunction
Assay type: in vivo, man
Procedure: Clinical Data Two NYHA III heart failure patients, who had not had erections for several years were treated with levosimendan. Patient I was exposed to 0.05 μg/kg/min continuous infusion of levosimendan for 7 days.

[1] = Patient I, 0.05 μg/kg/min continuous infusion for 7 days

CC1CC(=O)NN=C1c1ccc(NN=C(C#N)C#N)cc1 (single isomer, unassigned; (-)) [levosimendan, (−)-[[4-(1,4,5,6-tetrahydro-4-methyl-6-oxo-3-pyridazinyl)phenyl]hydrazono]propanedinitrile]
erections during the study [1]: erections in the mornings during the whole study
time to reported erections after starting the infusion [1]: 1 days
erections reported (Patient II, 0.1 μg/kg/min continuous infusion for 2 days): reported erections
